Assays:
231-Luc cells = assay: In vitro cytotoxicity (MTS assay); format: cell-based, human
Method: For cytotoxicity assays, 231-Luc cells were cultured in 96-well plates at 5×10^3 cells/well for 24 hours. Culture media was removed and replaced with media containing various treatment groups. […] The culture media was removed after 2 hours of incubation to mimic the clearance mechanism and replaced with fresh culture media. Cell viability was then measured after 24 hours with percent viability calculated as absorbance relative to control wells (cell with culture media). A total of 3 wells were used per treatment per concentration for each experiment.

231-Br-Luc cells = assay: In vitro cytotoxicity (MTS assay) in brain-seeking TNBC cells; format: cell-based, human; details: 24 hours' incubation

With `CC(=O)O[C@H]1C(=O)[C@@]2(C)[C@H]([C@H](OC(=O)c3ccccc3)[C@]3(O)C[C@H](OC(=O)[C@H](O)[C@@H](NC(=O)c4ccccc4)c4ccccc4)C(C)=C1C3(C)C)[C@]1(OC(C)=O)CO[C@@H]1C[C@@H]2O` [PTX, Paclitaxel] the “effect on cell viability / cytotoxicity” value (231-Luc cells; 2 hours exposure, then fresh media for 24 hours) was “only a small effect on cell viability”, the cytotoxicity (231-Luc cells; 24 hours in culture media) was “more potent than Abraxane™” and the “cell sensitivity (viability)” value (231-Br-Luc cells) was “sensitive to PTX treatment in vitro”.

Reference: patent US11612570B2, “Decreased adhesivity receptor-targeted nanoparticles for Fn14-positive tumors” (UNIVERSITY OF MARYLAND, BALTIMORE, priority 2014, dated 2023)
